The subject of the assay is CD8F1 mice, subcutaneous mammary adenocarcinoma, T/C%. As to the kind of experiment: NCI In Vivo Anticancer Drug Screen. Data for tumor model Mammary Adenocarcinoma CD8F1 (subcutaneous) in CD8F1. The conditions noted are these: higher = larger tumour. The protocol:
The antitumor activity of compounds was measured in mice bearing transplantable tumors. Survival or tumor size were measured and the results are expressed as the measurement made in the treated group (T) divided by the measurement made in the vehicle treated control group (C). The tumor model used in this assay is Mammary Adenocarcinoma CD8F1 (subcutaneous) in CD8F1

The mark [1] stands for this setting: endpoint: median tumor weight (est.), dose: 6.25 mg/kg/injection, schedule: Q07DX005 (ip), vehicle: saline with Tween-80.
Setting [2] is: endpoint: median tumor weight (est.), dose: 12.5 mg/kg/injection, schedule: Q07DX005 (ip), vehicle: saline with Tween-80.
Setting [3] is: endpoint: median tumor weight (est.), dose: 25.0 mg/kg/injection, schedule: Q07DX005 (ip), vehicle: saline with Tween-80.
[4] abbreviates: endpoint: median tumor weight (est.), dose: 50.0 mg/kg/injection, schedule: Q07DX005 (ip), vehicle: saline with Tween-80.
The mark [5] stands for this setting: endpoint: median tumor weight (est.), dose: 100.0 mg/kg/injection, schedule: Q07DX005 (ip), vehicle: saline with Tween-80.
The mark [6] stands for this setting: endpoint: median tumor weight (est.), dose: 200.0 mg/kg/injection, schedule: Q07DX005 (ip), vehicle: saline with Tween-80.
The mark [7] stands for this setting: endpoint: median tumor weight change, dose: 125.0 mg/kg/injection, schedule: Q01DX001 (ip), vehicle: saline with Tween-80.
Setting [8] is: endpoint: median tumor weight change, dose: 1000.0 mg/kg/injection, schedule: Q01DX001 (ip), vehicle: saline with Tween-80.
Where [9] appears, read: endpoint: median tumor weight change, dose: 2000.0 mg/kg/injection, schedule: Q01DX001 (ip), vehicle: saline with Tween-80.

Each structure is given as a SMILES string. Values joined by “and” are separate entries in the source; they are usually repeats but may differ in a detail not shown here. Equal values may be shown once. Results filed as inconclusive are left out.

`O=c1nc(Oc2ccccc2)nc2ncccn12`: the T/C was 88 % of control under setting [1]; 110 % of control under setting [2]; 100 % of control under setting [3]; 91 % of control under setting [4]; 114 % of control under setting [5].
As to `Cc1ncc([N+](=O)[O-])n1CCSC(N)=O`, the T/C is, setting by setting: under setting [2], 124 % of control and 99 % of control; under setting [4], 123 % of control; under setting [5], 96 % of control; (endpoint: median tumor weight (est.), dose: 400.0 mg/kg/injection, schedule: Q07DX005 (ip), vehicle: saline with Tween-80) 66 % of control.
For the compound `CCc1nc(N)nc(N)c1-c1ccc(Cl)c([N+](=O)[O-])c1`, the T/C by setting is: (endpoint: median tumor weight change, dose: 6.25 mg/kg/injection, schedule: Q01DX001 (ip), vehicle: saline with Tween-80) 47 % of control; (endpoint: median tumor weight change, dose: 12.5 mg/kg/injection, schedule: Q01DX001 (ip), vehicle: saline with Tween-80) 39 % of control; (endpoint: median tumor weight change, dose: 25.0 mg/kg/injection, schedule: Q01DX001 (ip), vehicle: saline with Tween-80) 20 % of control; (endpoint: median tumor weight change, dose: 50.0 mg/kg/injection, schedule: Q01DX001 (ip), vehicle: saline with Tween-80) 38 % of control; (endpoint: median tumor weight change, dose: 100.0 mg/kg/injection, schedule: Q01DX001 (ip), vehicle: saline with Tween-80) 47 % of control.
Turning to `CC[C@H](CC[C@@H](C)C1CC[C@H]2[C@@H]3CC=C4C[C@@H](OP(=O)(N5CC5)N5CC5)CC[C@]4(C)[C@H]3CC[C@]12C)C(C)C` (some centres not stated), the T/C is, setting by setting: under setting [3], 77 % of control; under setting [4], 56 % of control and 75 % of control; under setting [6], 72 % of control and 75 % of control; under setting [7], 82 % of control; under setting [8], 41 % of control and 44 % of control; under setting [9], 9 % of control and 14 % of control.
For the compound `Cc1ccc(S(=O)(=O)N/N=C/C(=O)O)cc1`, the T/C is 60 % of control (endpoint: median tumor weight (est.), dose: 12.5 mg/kg/injection, schedule: Q07DX005 (ip), vehicle: Klucel (hydroxypropylcellulose) (HPC)); 97 % of control (endpoint: median tumor weight (est.), dose: 12.5 mg/kg/injection, schedule: Q07DX005 (ip), vehicle: other); 120 % of control (endpoint: median tumor weight (est.), dose: 25.0 mg/kg/injection, schedule: Q07DX005 (ip), vehicle: Klucel (hydroxypropylcellulose) (HPC)); 70 % of control and 76 % of control (endpoint: median tumor weight (est.), dose: 25.0 mg/kg/injection, schedule: Q07DX005 (ip), vehicle: other); 62 % of control (endpoint: median tumor weight (est.), dose: 50.0 mg/kg/injection, schedule: Q07DX005 (ip), vehicle: Klucel (hydroxypropylcellulose) (HPC)); 53 % of control (endpoint: median tumor weight (est.), dose: 100.0 mg/kg/injection, schedule: Q07DX005 (ip), vehicle: Klucel (hydroxypropylcellulose) (HPC)).
In the case of `NNC(=S)N/N=C/c1ccccn1`, the T/C reads like this: under setting [1], 112 % of control; under setting [2], 84 % of control; under setting [3], 81 % of control; under setting [4], 59 % of control.
As to `CC(=O)O[C@H]1C(=O)[C@@]2(C)[C@H]([C@H](OC(=O)c3ccccc3)[C@]3(O)C[C@H](OC(=O)[C@H](O)[C@@H](NC(=O)c4ccccc4)c4ccccc4)C(C)=C1C3(C)C)[C@]1(OC(C)=O)CO[C@@H]1C[C@@H]2O`, the T/C (endpoint: median tumor weight (est.), dose: 15.0 mg/kg/injection, schedule: Q07DX005 (ip), vehicle: Klucel (hydroxypropylcellulose) (HPC)) is 57 % of control.
As for `CC(=O)O[C@@H]1CO[C@H]2O[C@H]3[C@@H](C(C=O)=C[C@H](O)[C@@H]4C5=C(C(C)C)CC[C@]5(C)CC[C@@]34C)[C@@]2(O)C1=O`, the T/C (endpoint: median tumor weight change, dose: 3.75 mg/kg/injection, schedule: Q01DX001 (ip), vehicle: Klucel (hydroxypropylcellulose) (HPC)) is 36 % of control; the T/C (endpoint: median tumor weight change, dose: 15.0 mg/kg/injection, schedule: Q01DX001 (ip), vehicle: Klucel (hydroxypropylcellulose) (HPC)) is 63 % of control and 74 % of control.
`CC(=O)NCCCCCCNC(C)=O`: the T/C is 58 % of control (endpoint: median tumor weight change, dose: 125.0 mg/kg/injection, schedule: Q01DX001 (ip), vehicle: saline); 67 % of control (endpoint: median tumor weight change, dose: 500.0 mg/kg/injection, schedule: Q01DX001 (ip), vehicle: saline); 52 % of control and 72 % of control (endpoint: median tumor weight change, dose: 1000.0 mg/kg/injection, schedule: Q01DX001 (ip), vehicle: saline); 39 % of control (endpoint: median tumor weight change, dose: 4000.0 mg/kg/injection, schedule: Q01DX001 (ip), vehicle: saline).
Turning to `C=CCNc1nc2c(s1)CCc1cc(OC)c(OC)cc1-2`, the T/C reads like this: under setting [2], 65 % of control; under setting [3], 44 % of control; under setting [4], 55 % of control; under setting [5], 74 % of control; under setting [6], 81 % of control.
In the case of `CC(=O)OC1COC(NC(=O)N(CCCl)N=O)C(OC(C)=O)C1OC(C)=O` (configuration not stated), the T/C is 32 % of control (endpoint: median tumor weight (est.), dose: 1.5 mg/kg/injection, schedule: Q07DX004 (ip), vehicle: saline with Tween-80); 103 % of control (endpoint: median tumor weight (est.), dose: 3.0 mg/kg/injection, schedule: Q07DX004 (ip), vehicle: saline with Tween-80); 35 % of control (endpoint: median tumor weight (est.), dose: 6.0 mg/kg/injection, schedule: Q07DX004 (ip), vehicle: saline with Tween-80); 103 % of control (endpoint: median tumor weight (est.), dose: 6.0 mg/kg/injection, schedule: Q07DX005 (ip), vehicle: saline with Tween-80); 68 % of control (endpoint: median tumor weight (est.), dose: 12.0 mg/kg/injection, schedule: Q07DX005 (ip), vehicle: saline with Tween-80); 46 % of control (endpoint: median tumor weight (est.), dose: 24.0 mg/kg/injection, schedule: Q07DX005 (ip), vehicle: saline with Tween-80).
As for `Cn1c(=O)[nH]c2nncnc2c1=O`, the T/C by setting is: (endpoint: median tumor weight change, dose: 15.62 mg/kg/injection, schedule: Q01DX001 (ip), vehicle: other) 89 % of control; (endpoint: median tumor weight change, dose: 31.25 mg/kg/injection, schedule: Q01DX001 (ip), vehicle: other) 88 % of control; (endpoint: median tumor weight change, dose: 62.5 mg/kg/injection, schedule: Q01DX001 (ip), vehicle: other) 57 % of control.
As to `CCCCCCCCCCCCCCCC(=O)Nc1ccn(C2OC(CO)C(O)C2O)c(=O)n1` (configuration not stated), the T/C (endpoint: median tumor weight (est.), dose: 12.5 mg/kg/injection, schedule: Q07DX005 (ip), vehicle: saline) is 58 % of control; the T/C (endpoint: median tumor weight (est.), dose: 25.0 mg/kg/injection, schedule: Q07DX005 (ip), vehicle: saline) is 63 % of control; the T/C (endpoint: median tumor weight (est.), dose: 50.0 mg/kg/injection, schedule: Q07DX005 (ip), vehicle: saline) was 65 % of control; the T/C (endpoint: median tumor weight (est.), dose: 100.0 mg/kg/injection, schedule: Q07DX005 (ip), vehicle: saline) is 31 % of control; the T/C (endpoint: median tumor weight (est.), dose: 400.0 mg/kg/injection, schedule: Q07DX005 (ip), vehicle: saline) is 14 % of control.
In the case of `CC[C@@]1(O)C[C@H](OC2CC(N(C)C)C(OC3CC(O)C(OC4CC(O)C(O)C(C)O4)C(C)O3)C(C)O2)c2c(cc3c(c2O)C(=O)c2c(O)ccc(O)c2C3=O)[C@H]1C(=O)OC` (some centres not stated), the T/C is, setting by setting: (endpoint: median tumor weight (est.), dose: 0.75 mg/kg/injection, schedule: Q07DX005 (ip), vehicle: other) 122 % of control; (endpoint: median tumor weight (est.), dose: 3.0 mg/kg/injection, schedule: Q07DX005 (ip), vehicle: other) 84 % of control.
Regarding `CC(=O)OC(C)C1C2=C(C(=O)CC1(C)O)C(=O)c1c(ccc(-c3ccc4c(c3O)C(=O)C3=C(C4=O)C(C(C)OC(C)=O)C(C)(O)CC3=O)c1O)C2=O` (configuration not stated), the T/C reads like this: (endpoint: median tumor weight change, dose: 3.75 mg/kg/injection, schedule: Q01DX001 (ip), vehicle: saline with Tween-80) 105 % of control; (endpoint: median tumor weight change, dose: 7.5 mg/kg/injection, schedule: Q01DX001 (ip), vehicle: saline with Tween-80) 42 % of control; (endpoint: median tumor weight change, dose: 15.0 mg/kg/injection, schedule: Q01DX001 (ip), vehicle: saline with Tween-80) 88 % of control; (endpoint: median tumor weight change, dose: 30.0 mg/kg/injection, schedule: Q01DX001 (ip), vehicle: saline with Tween-80) 83 % of control.
For `O=C(O)C1Cc2nc[nH]c2CN1CO` (configuration not stated), the T/C by setting is: under setting [7], 118 % of control; (endpoint: median tumor weight change, dose: 250.0 mg/kg/injection, schedule: Q01DX001 (ip), vehicle: saline with Tween-80) 94 % of control; (endpoint: median tumor weight change, dose: 500.0 mg/kg/injection, schedule: Q01DX001 (ip), vehicle: saline with Tween-80) 93 % of control; under setting [8], 77 % of control; under setting [9], 81 % of control.

These data come from PubChem BioAssay AID220 (DTP/NCI, 2004).
